Results reported in ChEMBL document CHEMBL1811808, “A mechanism-based potent sirtuin inhibitor containing Nε-thiocarbamoyl-lysine (TuAcK)” (Bioorg Med Chem Lett, 2011).
Activity calls are given as the source filed them. The calls are words filed in the database; no cut-off is given here. Square brackets hold non-standard residues; d marks the D form. Peptide text beside a SMILES is read from it. Asu = N[C@@H](CCCCCC(=O)O)C(=O)O

What was measured:
[1] = molecular target: T1, NAD-dependent protein deacetylase sirtuin-1 (Homo sapiens, UniProt Q96EB6); assay: Inhibition of human GST-tagged SIRT1 using H2NHK-AcK-LM-COOH as substrate assessed as enzymatic deacetylation product formation after 5 mins by HPLC analysis
T1 sequence (Q96EB6 whole entry): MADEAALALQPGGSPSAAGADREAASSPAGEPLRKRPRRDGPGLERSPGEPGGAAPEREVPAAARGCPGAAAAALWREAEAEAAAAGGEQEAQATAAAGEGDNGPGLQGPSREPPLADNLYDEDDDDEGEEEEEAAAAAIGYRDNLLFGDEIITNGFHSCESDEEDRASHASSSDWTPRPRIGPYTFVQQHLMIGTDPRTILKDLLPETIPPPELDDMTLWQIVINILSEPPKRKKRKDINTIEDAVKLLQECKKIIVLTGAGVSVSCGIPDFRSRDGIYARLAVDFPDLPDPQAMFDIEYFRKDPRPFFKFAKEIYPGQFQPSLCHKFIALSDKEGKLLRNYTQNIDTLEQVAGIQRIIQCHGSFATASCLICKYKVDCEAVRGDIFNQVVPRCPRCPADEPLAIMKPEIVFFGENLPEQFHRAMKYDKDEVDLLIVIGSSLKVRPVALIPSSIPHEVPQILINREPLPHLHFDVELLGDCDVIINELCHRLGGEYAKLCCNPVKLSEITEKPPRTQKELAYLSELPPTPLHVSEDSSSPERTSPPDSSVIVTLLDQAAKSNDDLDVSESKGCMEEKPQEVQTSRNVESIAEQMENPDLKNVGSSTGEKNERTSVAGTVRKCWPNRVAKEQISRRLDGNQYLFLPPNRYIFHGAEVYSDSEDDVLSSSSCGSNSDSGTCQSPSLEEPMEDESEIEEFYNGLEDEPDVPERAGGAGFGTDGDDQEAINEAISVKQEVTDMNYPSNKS

[2] = molecular target: T2, NAD-dependent protein deacetylase sirtuin-2 (Homo sapiens, UniProt Q8IXJ6); assay: Inhibition of human full length SIRT2 using H2N-MPSD-AcK-TIGG-COOH as substrate assessed as enzymatic deacetylation product formation after 60 mins by HPLC analysis
T2 sequence (Q8IXJ6 whole entry): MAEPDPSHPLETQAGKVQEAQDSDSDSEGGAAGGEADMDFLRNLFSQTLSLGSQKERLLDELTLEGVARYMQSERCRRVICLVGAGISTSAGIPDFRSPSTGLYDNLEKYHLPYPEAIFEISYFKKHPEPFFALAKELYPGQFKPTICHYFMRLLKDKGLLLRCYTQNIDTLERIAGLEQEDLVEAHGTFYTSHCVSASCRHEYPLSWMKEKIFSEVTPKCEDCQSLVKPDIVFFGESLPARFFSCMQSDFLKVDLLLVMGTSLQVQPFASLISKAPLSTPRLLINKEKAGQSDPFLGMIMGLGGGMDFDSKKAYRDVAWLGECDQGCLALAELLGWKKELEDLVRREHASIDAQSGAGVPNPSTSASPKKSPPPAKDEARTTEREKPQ

[3] = molecular target: T3, NAD-dependent protein deacetylase sirtuin-1 (Homo sapiens) (UniProt Q96EB6); assay: Activity at SIRT1 assessed as formation of alkylamidate intermediate of compound at 0.6 mM after 1 min by MALDI-MS analysis in presence of NAD+
T3 sequence (whole entry): T1 sequence (Q96EB6 whole entry)

[4] = molecular target: T3, NAD-dependent protein deacetylase sirtuin-1 (Homo sapiens); assay: Inhibition of SIRT1 in human HCT116 cells expressing wild type p53 assessed as increase in p53 acetylation at K382 after 10 hr by Western blot analysis; conditions: HCT-116

Row | Compound | IC50 [1] | IC50 [2] | Activity [3] | inhibition [4]
1 | CC(=O)NCCCC[C@H](NC(=O)[C@H](CCCCCC(N)=O)NC(=O)[C@H](CCCCNC(C)=O)NC(C)=O)C(N)=O (Ac-Lys(Ac)-[Asu](NH2)-Lys(Ac)-NH2) | 290 µM | 190 µM |  | 
2 | CC(=O)NCCC[C@H](NC(=O)[C@H](CCCCNC(N)=S)NC(=O)[C@H](CCCNC(C)=O)NC(C)=O)C(N)=O | 89.5 µM |  | Active | Dose-dependent effect
